In one data set the test system is soybean plants. Description: Rating for plant health of T1 soybean plants. Format: in vivo. Here is the method: 12 T1 soybean plants per event and respective controls are potted and grown for 3-4 weeks in the phytochamber (16 h day-und 8 h-night-Rhythm at a temperature of 16° and 22° C. und a humidity of 75%) till the first 2 trifoliate leaves were fully expanded. A general rating of plant health is performed before (and partially after) the infection experiment. Only those plants are selected for inoculation that show, in general, a healthy phenotype. Healthy phenotype means normal growth habit, green, fully expanded green leaves, having no or only minor lesions, no obvious yellowing, leaf drop or other stress-associated phenotypes.

The next data set has as its system Phakopsora pachyrhizi. Description: Pathogen assay for soybean: susceptibility to soybean rust (diseased leaf area). Format: in vivo, Phakopsora pachyrhizi on soybean. Here is the method:
12 T1 soybean plants per event and respective controls are potted and grown for 3-4 weeks in the phytochamber (16 h day-und 8 h-night-Rhythm at a temperature of 16° and 22° C. und a humidity of 75%) till the first 2 trifoliate leaves were fully expanded.
The plants are inoculated with spores of P. pachyrhizi. In order to obtain appropriate spore material for the inoculation, soybean leaves, which are infected with rust 15-20 days ago, are taken 2-3 days before the inoculation and transferred to agar plates (1% agar in H2O). The leaves are placed with their upper side onto the agar, which allowed the fungus to grow through the tissue and to produce very young spores. For the inoculation solution, the spores are knocked off the leaves and are added to a Tween-H2O solution. The counting of spores is performed under a light microscope by means of a Thoma counting chamber. […]
The progression of the soybean rust disease is scored in percent by the estimation of the diseased area (area which was covered by sporulating uredinia) on the backside (abaxial side) of the leaf. […]
At all 11-12 T1 soybean plants per event and 5 independent events per construct were inoculated with spores of Phakopsora pachyrhizi. The macroscopic disease symptoms of soybean against P. pachyrhizi of the inoculated soybean plants were scored 14 days after inoculation. […]

Setting [1] is: transgenic soybean accumulating the coumarin, compared with WT.

The source of these data is patent publication US20260275368A1, “COUMARIN SYNTHESIS AND USES THEREOF” (BASF SE, priority 2022, published 2026).

The structures appear in SMILES notation.

On to `COc1cc2ccc(=O)oc2cc1O` [Scopoletin, scopoletin, reference compound], for which, in the data set with soybean plants (setting [1]), the Germination rate entry is reported as “Slightly”, the first trifoliate leaf result is “some”, the growth phenotype entry is listed as “Smaller” and the older leaves result was “Yellowing of”.
With `COc1c(O)c(O)c2oc(=O)ccc2c1O` [Sideretin, sideretin], in the data set on soybean plants (in vivo), the Germination rate result was “like WT”, the first trifoliate leaf result is “like WT”, the growth phenotype result was “like WT” and the older leaves result was “Unclear”. Also, the “reduction of the diseased leaf area in comparison to non-transgenic control plants” value in the data set on Phakopsora pachyrhizi (59 T1 soybean plants (5 events) accumulating sideretin by expressing S8H+CYP82C4, inoculated with P. pachyrhizi spores, scored 14 days after inoculation, p<0.01) is on record as 41%. Also, the “increase of soybean rust resistance” value in the data set on Phakopsora pachyrhizi (accumulation of sideretin by expression of S8H and CYP82C4 (and F6H1 and CoSy) in T1 soybean, vs 18 wild type controls, 14 days after inoculation, p=0,009) amounted to 41%.
